Test results published in US20260014194A1, “COMBINATIONS COMPRISING METAP2 INHIBITORS FOR THE TREATMENT OF CANCER” (SynDevRx, Inc., priority 2022, published 2026).

Experiments:
[1] = Body weight in MCF-7 tumor-bearing mice; assay type: in vivo, NU/j mice; conditions: FIG. 34; compared to vehicle group; Compound 1 8 mg/kg, inavolisib 25 mg/kg
Protocol: (§1) Animals: Female NU/j mice, 6 weeks of age upon delivery, were received and acclimated at 5 mice per cage for a minimum of 7 days. Mice were housed in autoclaved caging with autoclaved water throughout the course of the study. The animals had free access to food (irradiated chow 2920X) and water. The animals were housed in a temperature and humidity-controlled room with a 12-hour light cycle.
Inavolisib was administered orally (PO) once per day (QD) at an amount of 25 mg/kg for the duration of the study.

[2] = system: MCF-7 cells; test: MCF-7 mammary fat pad tumor model: tumor volume and tumor growth inhibition; assay type: in vivo, NU/j mice; conditions: inavolisib 25 mg/kg PO QD
Protocol: as §1
Cell Culture: MCF-7 cells were cultured in Dulbecco's Modified Eagle Medium (DMEM) with 10% FBS.
Tumor Cell Implantation: On the day of implantation, cells were washed 1× with phosphate-buffered saline (PBS). Following washing, cells were pelleted (5 min @1000 rpm, RT) and then counted with a hemocytometer. A cell concentration of 5×10^6 per mouse was re-suspended in an appropriate amount of PBS and 1:1 Matrigel (kept on ice until implantation). Forty-eight hours prior to cell implantation, a 17-β estradiol pellet (0.36 mg 60-day slow release pellet) was implanted subcutaneously between the scapulae of each mouse. […]
Tumor Assessment: prior to cell implantation, all animals were ear tagged. Beginning 5 days post cell implantation, tumors were measured two times weekly (length×width) using a wireless Mitutoyo UWAVE-T digital calipers in conjunction with UWAVE-R to record measurements. […] Randomization was determined by tumor volume of all of the mice. […]

C[C@H](Nc1ccc2c(c1)OCCn1cc(N3C(=O)OC[C@H]3C(F)F)nc1-2)C(N)=O [Inavolisib, inavolisib]
Weight loss (body weight change over the study) [1]: increased as compared to the vehicle group
Tumor Growth Inhibition ([2]; Day 25, Compound 1 8 mg/kg SC Q4D): 74%
Tumor Volume on Day 25 ([2]; starting tumor volume 59 mm^3, Compound 1 8 mg/kg SC Q4D, vehicle 469 mm^3): 167 mm^3
